{"source": "patent US8933230B2", "about": "“Phosphorus-containing group-substituted quinoline, its preparation process, medical composition containing the compounds and application” (priority 2011, dated 2015)", "key": {"CSNK2A1": {"molecular_target": "T1, CSNK2A1 (Homo sapiens, UniProt P68400)", "T1 construct": "purchased DiscoveRx Corporation (KinomeScan)", "T1 sequence (P68400 whole entry)": "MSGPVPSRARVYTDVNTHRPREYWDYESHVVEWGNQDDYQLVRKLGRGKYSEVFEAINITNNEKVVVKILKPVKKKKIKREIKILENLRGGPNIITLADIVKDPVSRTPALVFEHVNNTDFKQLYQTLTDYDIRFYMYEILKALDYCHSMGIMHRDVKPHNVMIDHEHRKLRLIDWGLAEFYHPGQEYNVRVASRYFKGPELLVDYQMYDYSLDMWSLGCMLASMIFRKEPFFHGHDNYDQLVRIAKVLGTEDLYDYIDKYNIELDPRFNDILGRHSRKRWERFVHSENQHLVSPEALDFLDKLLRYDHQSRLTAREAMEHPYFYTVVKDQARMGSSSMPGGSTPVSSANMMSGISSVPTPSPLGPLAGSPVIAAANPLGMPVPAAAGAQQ", "test": "KinomeScan kinase panel", "type": "binding", "summary_of_the_method": "(§1)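 Each kinase in a 442-kinase KinomeScan set is assayed with compound present at 1000 nM, and percentage-type inhibition at that level is given.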"}, "[1]": {"molecular_target": "T2, JAK3(JH1domain-catalytic) (Homo sapiens, UniProt P52333)", "T2 construct": "JAK3(JH1domain-catalytic); purchased DiscoveRx Corporation (KinomeScan)", "T2 sequence (P52333 822-1111 limits assumed)": "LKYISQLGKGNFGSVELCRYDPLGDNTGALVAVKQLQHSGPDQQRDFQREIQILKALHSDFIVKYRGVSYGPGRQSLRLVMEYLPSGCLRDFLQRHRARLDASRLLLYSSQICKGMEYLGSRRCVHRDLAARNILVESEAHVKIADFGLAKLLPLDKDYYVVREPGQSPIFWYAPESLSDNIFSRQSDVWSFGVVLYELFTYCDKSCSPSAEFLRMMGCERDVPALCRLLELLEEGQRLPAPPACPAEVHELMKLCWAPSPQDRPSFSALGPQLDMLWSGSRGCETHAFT", "test": "KinomeScan kinase panel", "type": "binding", "summary_of_the_method": "as §1"}, "MUSK": {"molecular_target": "T3, MUSK (Homo sapiens, UniProt O15146)", "T3 construct": "purchased DiscoveRx Corporation (KinomeScan)", "T3 sequence (O15146 24-869)": "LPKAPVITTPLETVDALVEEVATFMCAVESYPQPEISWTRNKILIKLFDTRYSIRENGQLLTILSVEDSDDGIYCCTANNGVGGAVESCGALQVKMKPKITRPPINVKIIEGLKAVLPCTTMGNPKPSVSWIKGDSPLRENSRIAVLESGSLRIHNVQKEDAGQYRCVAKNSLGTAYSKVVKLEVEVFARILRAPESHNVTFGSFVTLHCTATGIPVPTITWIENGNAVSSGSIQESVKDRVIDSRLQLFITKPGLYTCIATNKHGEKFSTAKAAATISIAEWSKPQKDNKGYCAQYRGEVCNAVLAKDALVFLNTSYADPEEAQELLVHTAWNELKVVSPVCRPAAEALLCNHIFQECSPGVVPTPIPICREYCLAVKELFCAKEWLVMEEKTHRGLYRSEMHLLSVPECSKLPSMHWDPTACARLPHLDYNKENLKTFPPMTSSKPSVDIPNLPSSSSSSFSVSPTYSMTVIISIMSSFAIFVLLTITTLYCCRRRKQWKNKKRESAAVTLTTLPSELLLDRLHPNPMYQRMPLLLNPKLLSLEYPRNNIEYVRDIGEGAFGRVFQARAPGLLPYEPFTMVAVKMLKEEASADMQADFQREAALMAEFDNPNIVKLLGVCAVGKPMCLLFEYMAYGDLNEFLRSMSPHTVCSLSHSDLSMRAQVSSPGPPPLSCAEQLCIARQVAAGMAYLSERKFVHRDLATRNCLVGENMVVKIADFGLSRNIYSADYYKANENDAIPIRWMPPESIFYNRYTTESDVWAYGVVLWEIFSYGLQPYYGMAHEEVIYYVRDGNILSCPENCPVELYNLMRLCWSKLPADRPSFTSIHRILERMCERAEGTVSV", "test": "KinomeScan kinase panel", "type": "binding", "summary_of_the_method": "as §1"}, "ZAP7C": {"molecular_target": "T4, ZAP7C (Homo sapiens, UniProt P43403)", "T4 construct": "purchased DiscoveRx Corporation (KinomeScan service)", "T4 sequence (P43403 whole entry)": "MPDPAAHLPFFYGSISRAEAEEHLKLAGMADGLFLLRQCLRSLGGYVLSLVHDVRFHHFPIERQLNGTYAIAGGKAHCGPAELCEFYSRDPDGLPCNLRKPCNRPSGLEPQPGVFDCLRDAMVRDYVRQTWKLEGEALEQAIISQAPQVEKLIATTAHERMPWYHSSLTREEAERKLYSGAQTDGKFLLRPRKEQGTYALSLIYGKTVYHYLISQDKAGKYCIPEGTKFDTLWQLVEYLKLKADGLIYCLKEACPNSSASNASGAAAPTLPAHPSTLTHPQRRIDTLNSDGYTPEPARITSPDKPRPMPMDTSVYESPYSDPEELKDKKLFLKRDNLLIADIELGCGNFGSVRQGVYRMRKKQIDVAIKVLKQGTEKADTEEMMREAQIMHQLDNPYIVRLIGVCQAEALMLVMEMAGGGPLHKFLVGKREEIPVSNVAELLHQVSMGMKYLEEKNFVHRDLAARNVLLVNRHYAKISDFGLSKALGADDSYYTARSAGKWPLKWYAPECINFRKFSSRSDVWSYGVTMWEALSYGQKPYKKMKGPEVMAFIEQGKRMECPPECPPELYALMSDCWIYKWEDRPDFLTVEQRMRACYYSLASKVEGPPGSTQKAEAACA", "test": "KinomeScan kinase panel", "type": "binding", "summary_of_the_method": "as §1"}, "PFCDPK1 (P. falciparum)": {"molecular_target": "T5, PFCDPK1 (P. falciparum) (Plasmodium falciparum, UniProt P62344)", "T5 construct": "purchased DiscoveRx Corporation (KinomeScan)", "test": "KinomeScan kinase panel", "type": "binding"}, "PFPK5 (P. falciparum)": {"molecular_target": "T6, PFPK5 (P. falciparum) (Plasmodium falciparum, UniProt P61075)", "T6 construct": "purchased DiscoveRx Corporation (KinomeScan)", "T6 sequence (P61075 whole entry)": "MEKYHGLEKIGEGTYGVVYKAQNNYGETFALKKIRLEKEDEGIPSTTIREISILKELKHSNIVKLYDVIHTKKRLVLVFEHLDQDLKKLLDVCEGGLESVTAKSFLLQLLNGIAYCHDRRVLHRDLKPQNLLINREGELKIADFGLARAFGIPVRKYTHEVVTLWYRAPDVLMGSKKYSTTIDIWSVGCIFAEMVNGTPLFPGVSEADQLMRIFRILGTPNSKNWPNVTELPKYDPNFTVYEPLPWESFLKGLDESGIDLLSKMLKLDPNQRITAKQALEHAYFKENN", "test": "KinomeScan kinase panel", "type": "binding"}, "PDGFR-β": {"molecular_target": "T7, PDGFR-β (Mus musculus, UniProt P05622)", "T7 construct": "cell line NIH3T3 having endogenous high expression wild type PDGFR-β; endogenous in cells; host or cells: NIH3T3", "T7 sequence (P05622 32-1098)": "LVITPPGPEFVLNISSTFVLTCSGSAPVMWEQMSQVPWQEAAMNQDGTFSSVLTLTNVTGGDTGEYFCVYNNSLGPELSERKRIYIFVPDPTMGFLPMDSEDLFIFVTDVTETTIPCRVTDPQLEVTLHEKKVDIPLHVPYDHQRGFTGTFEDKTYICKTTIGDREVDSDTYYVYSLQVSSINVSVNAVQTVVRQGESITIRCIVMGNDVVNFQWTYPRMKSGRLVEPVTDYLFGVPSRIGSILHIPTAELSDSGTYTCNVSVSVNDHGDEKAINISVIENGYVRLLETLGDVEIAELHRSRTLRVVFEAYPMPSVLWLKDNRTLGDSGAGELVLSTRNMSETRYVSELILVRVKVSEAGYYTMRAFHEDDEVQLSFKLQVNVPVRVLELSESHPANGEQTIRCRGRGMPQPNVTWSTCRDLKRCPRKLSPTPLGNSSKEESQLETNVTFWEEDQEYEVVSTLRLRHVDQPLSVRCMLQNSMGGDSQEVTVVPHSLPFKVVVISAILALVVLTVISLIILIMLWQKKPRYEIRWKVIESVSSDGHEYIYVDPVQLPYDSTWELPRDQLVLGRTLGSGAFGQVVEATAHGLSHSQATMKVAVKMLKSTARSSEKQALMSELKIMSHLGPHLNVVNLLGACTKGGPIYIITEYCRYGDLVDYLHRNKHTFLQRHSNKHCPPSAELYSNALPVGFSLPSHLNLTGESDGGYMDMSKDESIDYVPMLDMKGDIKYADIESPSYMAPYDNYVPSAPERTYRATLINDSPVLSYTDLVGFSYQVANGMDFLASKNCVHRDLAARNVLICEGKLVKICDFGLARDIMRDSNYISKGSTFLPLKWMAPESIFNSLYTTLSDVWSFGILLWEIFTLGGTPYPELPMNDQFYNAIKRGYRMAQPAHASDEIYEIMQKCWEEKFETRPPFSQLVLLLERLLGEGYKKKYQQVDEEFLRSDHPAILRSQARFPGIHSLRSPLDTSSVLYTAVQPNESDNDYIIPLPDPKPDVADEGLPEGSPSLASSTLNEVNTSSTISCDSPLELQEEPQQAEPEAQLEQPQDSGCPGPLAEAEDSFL", "test": "PDGFR-β kinase phosphorylation in NIH3T3 cells (sandwich ELISA)", "type": "cell-based", "conditions": "PDGF-BB 100 ng/mL 3 min, mean value of two testing results, read-out: IC50 values in the cell, PDGFR-β", "protocol": "Inhibitory activity on the kinases in tumor cells: In this example, the compound prepared in Example 10, N1-[4-[[7-[[1-(diethoxyphosphorylmethyl)-4-piperidinyl]methoxyl]-6-methoxyl-4-quinolyl]oxyl]-3-fluorophenyl]-N1′-(4-fluorophenyl)cyclopropane-1,1-dicarboxamide is tested in tumor cells by ProQinase GmbH corporation (Breisacher Str. 117, D-79106 Freiburg, Germany. www.proqinase.com) for the inhibitory activity on the following kinases: c-KIT, c-MET, VEGFR2 and PDGFR-β. The test includes the following steps:\nFirstly, the compound according to present invention is dissolved in dimethyl sulfoxide (DMSO) to prepare a 10 mM stock solution, which is diluted serially according to the concentration range shown in Table 6:\nPDGFR-β kinase: in the test experiment of PDGFR-beta kinase phosphorylation in the cells, mouse embryo fibroblast cell line NIH3T3 having endogenous high expression wild type PDGFR-β (wild-type PDGFR-β) is used. When these cells are simulated with mouse platelet-derived growth factor BB (PDGF-BB), it causes the tyrosine of PDGFR-beta receptor kinases self-phosphorylated. NIH3T3 cells are inoculated in DMEM culture solution containing 10% FCS in a multi-well cell culture dish. The compound of the invention is added to the cells after serum overnight starvation, then the cells are cultured in a medium without serum. […]"}, "VEGFR2": {"molecular_target": "VEGFR2 (Homo sapiens, UniProt P35968)", "sequence (P35968 20-1356)": "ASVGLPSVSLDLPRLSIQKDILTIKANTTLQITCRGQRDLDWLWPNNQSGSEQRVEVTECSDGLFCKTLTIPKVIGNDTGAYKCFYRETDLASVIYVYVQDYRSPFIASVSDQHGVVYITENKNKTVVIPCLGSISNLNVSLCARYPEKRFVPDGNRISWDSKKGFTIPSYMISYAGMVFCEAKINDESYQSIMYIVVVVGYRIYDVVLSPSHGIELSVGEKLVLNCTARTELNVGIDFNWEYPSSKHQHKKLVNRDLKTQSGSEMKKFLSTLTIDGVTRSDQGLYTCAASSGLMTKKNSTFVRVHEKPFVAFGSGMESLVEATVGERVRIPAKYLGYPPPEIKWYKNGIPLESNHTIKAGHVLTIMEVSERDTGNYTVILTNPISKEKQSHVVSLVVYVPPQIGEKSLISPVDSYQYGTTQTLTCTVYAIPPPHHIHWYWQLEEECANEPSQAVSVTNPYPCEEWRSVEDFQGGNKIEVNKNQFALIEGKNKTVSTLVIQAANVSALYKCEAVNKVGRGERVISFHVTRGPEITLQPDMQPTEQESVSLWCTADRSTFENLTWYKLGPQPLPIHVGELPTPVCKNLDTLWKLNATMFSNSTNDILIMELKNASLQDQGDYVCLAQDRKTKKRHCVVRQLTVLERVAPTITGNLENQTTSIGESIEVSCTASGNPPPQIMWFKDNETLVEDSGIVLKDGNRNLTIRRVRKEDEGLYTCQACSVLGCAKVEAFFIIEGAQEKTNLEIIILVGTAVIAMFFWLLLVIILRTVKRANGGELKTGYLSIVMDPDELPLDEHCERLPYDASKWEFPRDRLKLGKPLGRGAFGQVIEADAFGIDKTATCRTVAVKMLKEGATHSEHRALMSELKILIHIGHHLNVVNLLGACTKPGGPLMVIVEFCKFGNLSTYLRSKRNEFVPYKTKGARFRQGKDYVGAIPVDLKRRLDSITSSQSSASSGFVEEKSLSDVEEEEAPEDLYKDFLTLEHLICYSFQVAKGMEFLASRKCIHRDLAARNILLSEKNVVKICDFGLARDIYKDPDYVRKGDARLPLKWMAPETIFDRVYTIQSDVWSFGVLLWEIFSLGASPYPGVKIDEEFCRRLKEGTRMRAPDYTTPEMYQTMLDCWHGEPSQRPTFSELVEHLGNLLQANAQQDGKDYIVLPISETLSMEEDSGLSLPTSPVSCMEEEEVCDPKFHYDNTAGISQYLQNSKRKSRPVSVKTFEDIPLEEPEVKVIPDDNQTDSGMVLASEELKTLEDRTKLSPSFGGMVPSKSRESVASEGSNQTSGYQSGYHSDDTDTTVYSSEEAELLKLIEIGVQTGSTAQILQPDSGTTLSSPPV", "test": "KinomeScan kinase panel", "type": "binding", "set-up": "purchased DiscoveRx Corporation (KinomeScan service)", "protocol": "In this example, the compound prepared in Example 10, N1-[4-[[7-[[1-(diethoxyphosphorylmethyl)-4-piperidinyl]methoxyl]-6-methoxyl-4-quinolyl]oxyl]-3-fluorophenyl]-N1′-(4-fluorophenyl)cyclopropane-1,1-dicarboxamide is tested for the inhibitory effect in the 442-kinase panel of KinomeScan™ (www.kinomescan.com) from DiscoveRx Corporation (4215 Sorrento Valley Blvd, San Diego, Calif. 92121) at 1000 nM of the compound concentration, the results are shown in the following Table 5:\nFor the detailed information of the screening technique, see Fabian, M. A. et al, Nat., Biotechnol. 2005, 23, 329 and Karaman, M. W. et al, Nat., Biotechnol. 2008, 26, 127. It can be seen from the following representative results that, the compound according to the present invention has significant inhibitory effect on kinases including c-Met, KDR or VEGFR2, RET, PDGFR-β, c-KIT, Flt3, MEK5, DDR1, LOK, CSF1R, EPHA7, EPHA8, EPHB6, MKNK2, BLK, HIPK4, HCK, Flt4 and the mutants thereof"}}, "note": "pIC50: −log10 of the molar value.", "data": [{"smiles": "CCOP(=O)(CN1CCC(COc2cc3nccc(Oc4ccc(NC(=O)C5(C(=O)Nc6ccc(F)cc6)CC5)cc4F)c3cc2OC)CC1)OCC", "note": "[Example 10, N1-[4-[[7-[[1-(diethoxyphosphorylmethyl)-4-piperidinyl]methoxyl]-6-methoxyl-4-quinolyl]oxyl]-3-fluorophenyl]-N1′-(4-fluorophenyl)cyclopropane-1,1-dicarboxamide]", "values": [{"measurement": "% Ctrl@1000 nM", "setting": "CSNK2A1", "value": 100, "unit": "% Ctrl"}, {"measurement": "% Ctrl@1000 nM", "setting": "[1]", "value": 100, "unit": "% Ctrl"}, {"measurement": "% Ctrl@1000 nM", "setting": "MUSK", "value": 13, "unit": "% Ctrl"}, {"measurement": "% Ctrl@1000 nM", "setting": "ZAP7C", "value": 81, "unit": "% Ctrl"}, {"measurement": "% Ctrl@1000 nM", "setting": "PFCDPK1 (P. falciparum)", "value": 84, "unit": "% Ctrl"}, {"measurement": "% Ctrl@1000 nM", "setting": "PFPK5 (P. falciparum)", "value": 100, "unit": "% Ctrl"}, {"measurement": "pIC50", "setting": "PDGFR-β", "value": 7.89}, {"measurement": "% Ctrl@1000 nM", "setting": "VEGFR2", "value": 3.9, "unit": "% Ctrl"}]}]}
